Results published in patent publication US20080280326A1, “Novel Gonadotropin-Releasing Hormone, Precursor Peptides Thereof and Genes Encoding the Same” (SUNTORY LIMITED, priority 2000, published 2008).
Square brackets hold non-standard residues; d marks the D form. pGlu = O=C1CC[C@@H](C(=O)O)N1

How the values were obtained:
[1] = system: Cells taken from the pituitary glands of quails; test: Release of luteinizing hormone (LH) from cultured quail pituitary gland cells, radioimmunoassay; assay type: cell-based; details: final concentrations 0, 10^-9 to 10^-5 M, 4 hrs incubation, one-way ANOVA (FIG. 4)
Procedure: Cells taken from the pituitary glands of quails were inoculated onto a 24-well plate at 7.5×10^5 cells/well (substantially equivalent to two animals). The cells were then incubated for 3 days in a culture medium containing fetal calf serum. The cells were incubated for another 24 hrs in 1 ml serum-free medium. After the incubation period, the peptide solution was added to the culture medium to final concentrations of 0, 10^−9, 10^−8, 10^−7, 10^−6 and 10^−5 M, respectively, and the cultures were further incubated for 4 hrs. The supernatant was then collected from each culture. For each concentration, 5 samples were subjected to radioimmunoassay and measurements were taken. The data were statistically analyzed by one-way analysis of variance (ANOVA).

heart of O. vulgaris = test: Measurement of the heart beat activity of O. vulgaris (isolated cannulated heart); set-up: species or system Octopus vulgaris; details: for variation of the heart beat of O. vulgaris (heart rate and amplitude): 10^-5 M added to the chamber (FIG. 3)
Procedure: The heart beat activity of O. vulgaris was measured according to the method proposed by Morishita, et al. (Fumihiro Morishita, Biochem. Biophys. Res. Commun., 240, 354-358 (1997)). Specifically, the heart was taken from O. vulgaris and the atria were removed from the heart. A cannula was inserted from each atrium into the ventricle and was at the same time connected to a chamber (80 ml in volume) by tying with a cotton thread. The aorta was pinched to prevent leakage of liquid from the ventricle and was connected to a tension transducer. This completed preparation of the heart to serve as a specimen for the assay. Each cannula was adjusted to permit a 1 to 2 ml/min flow of artificial sea water (containing 0.1% glucose). Each of the analytes to be assayed was dissolved in 1 ml of the same artificial sea-water, and the resulting solution was injected into the heart through the cannulae. The variation of the heart beat was recorded.
As test compounds, Compound (1) isolated from the brains of O. vulgaris, Compound (2), and cGnRH-II, a vertebrate GnRH isolated from chickens and used to derive Compound (2) therefrom, were used.

Row | Substance | release of luteinizing hormone (LH) [1] | variation of the heart beat of O. vulgaris (heart of O. vulgaris; amount of Compound (1) corresponding to one specimen of O. vulgaris added to the chamber (FIG. 2)) | cardioactivity toward the heart beat of O. vulgaris, synthetic versus naturally-occurring peptide (heart of O. vulgaris; purified synthetic peptide of Example 3) | variation of the heart beat of O. vulgaris (heart rate and amplitude) (heart of O. vulgaris)
1 | <Glu-Asn-Tyr-His-Phe-Ser-Asn-Gly-Trp-His-Pro-Gly-NH2 ([pGlu]NYHFSNGWHPG-NH2; listed as Octopus vulgaris) [Compound (1)] | significantly increased the release of luteinizing hormone (LH) | enhanced the heart beat of O. vulgaris | same cardioactivity toward the heart beat of O. vulgaris as did the naturally-occurring peptide | –
2 | <Glu-Asn-Tyr-His-Trp-Ser-His-Gly-Trp-Tyr-Pro-Gly-NH2 ([pGlu]NYHWSHGWYPG-NH2; SMILES NC(=O)CNC(=O)[C@@H]1CCCN1C(=O)[C@H](Cc1ccc(O)cc1)NC(=O)[C@H](Cc1c[nH]c2ccccc12)NC(=O)CNC(=O)[C@H](Cc1c[nH]cn1)NC(=O)[C@H](CO)NC(=O)[C@H](Cc1c[nH]c2ccccc12)NC(=O)[C@H](Cc1c[nH]cn1)NC(=O)[C@H](Cc1ccc(O)cc1)NC(=O)[C@H](CC(N)=O)NC(=O)[C@@H]1CCC(=O)N1) [Compound (2), cGnRH-II with Asn-Tyr inserted between the first <Glu and the second His residues] | – | – | – | enhanced the heart beat of O. vulgaris by increasing both the heart rate and the amplitude of the heart beat
3 | <Glu-His-Phe-Ser-Asn-Gly-Trp-His-Pro-Gly-NH2 ([pGlu]HFSNGWHPG-NH2; SMILES NC(=O)CNC(=O)[C@@H]1CCCN1C(=O)[C@H](Cc1c[nH]cn1)NC(=O)[C@H](Cc1c[nH]c2ccccc12)NC(=O)CNC(=O)[C@H](CC(N)=O)NC(=O)[C@H](CO)NC(=O)[C@H](Cc1ccccc1)NC(=O)[C@H](Cc1c[nH]cn1)NC(=O)[C@@H]1CCC(=O)N1; listed as Octopus vulgaris) [Compound (3), decapeptide obtained by deletion of amino acids 2 and 3 from the N-terminal region of Compound (1)] | increase the release of luteinizing hormone (LH) | – | – | –
4 | cGnRH-II: chicken-II-type GnRH, a vertebrate decapeptide GnRH isolated from chickens, used to derive Compound (2) ([pGlu]HWSHGWYPG-NH2; ends and bridges not checked; UniProt P68072 1-10, looked up) [reference compound] | – | – | – | did not have any effect on the heart rate or the amplitude of the heart beat of O. vulgaris
